Data from patent US4451485A, “Treatment of cardio-vascular diseases with 3-(2,2,2-trimethylhydrazinium) propionate dihydrate” (Institu Organicheskogo Sinteza Akademii Nauk Latviiskoi SSR, priority 1981, dated 1984).

Columns and labels:
[1] = Coronary circulation and hemodynamics in narcotized cats; assay type: in vivo
Experimental: In acute experiments on narcotized cats with a mass of from 2.9 to 4.1 kg under artificial respiration, arterial pressure was recorded in the common carotide artery, central venous pressure in the right auricle, volume rate of blood flow in the ascending aortic arch and volume rate of the coronary blood flow. At the same time, there was recorded the content of oxyhemoglobin in venous coronary blood.

[2] = Strophanthin arrhythmia in guinea pigs (450 μg/kg); assay type: in vivo; conditions: for ED50: Cavia porcellus, read-out: ED50, Strophanthin arrhythmia in guinea pigs
Experimental: As the third model of arrhythmia, there was used strophanthin arrhythmia in guinea pigs. […] Against the background of arrhythmia the test preparations were administered intravenously.

[3] = Variation of arrhythmogenic and lethal doses of CaCl2 in mice; assay type: in vivo, white mice; conditions: for Effect on arrhythmogenic and lethal doses of calcium chloride: single intraperitoneal administration
Experimental: Thus, the effect of the preparation according to the present invention has been studied relative to the variation of arrhythmogenic and lethal doses of calcium chloride. An experiment was carried out on white mice of both sexes weighing 19-28 g which were narcotized by urethane and an ECG was remetered in transthoracic lead. A 2% solution of calcium chloride was administered to the test animals into the tail vein at a constant rate (0.1 ml for 15 seconds). The average dose of calcium chloride causing the appearance of arrhythmia and heart arrest was determined. In the test groups, the studied compounds were administered 45, 60, 120, 180 and 240 minutes before the beginning of administration of calcium chloride (Table 1).
Variation of arrthythmogenic and lethal doses of CaCl2
with time after administration of the studied
pharmaceutical compositions in experiments on mice.

[4] = in vivo; parameters: species or system white mice; conditions: mouse, in vivo; for LD50: white mice, intravenous (Table 2)
[5] = Threshold of electric fibrillation of auricles and ventricles in cats; assay type: in vivo; conditions: for ED50: Felis catus, read-out: ED50, electric irritation of cat's heart; for Effect on fibrillation threshold relative to the composition of the invention: novocainamide 40-55 mg/kg, quinidine and lidocain lower doses
Experimental: Furthermore, the preparation according to the present invention was tested for specific antiarrhythmic and antianginal effects. […] The effect of the novel pharmaceutical composition according to the present invention was studied on cats weighing 2.9-3.6 kg. The preparation was used as a 10% aqueous solution containing 3-(2,2,2-trimethylhydrazinium)propionate for the determination of the threshold value of electric fibrillation of auricles and ventricles. Under artificial respiration after opening of the thorax and pericardium, needle-like electrodes were applied to the right auricula and apex of the left ventricle. The irritation was effected by square pulses of 1 m.s., 15 st/s.
(§1) For the comparison of preparations, as the criterion of the range of therapeutic effect, there was used the ratio of the half-lethal dose to the half-effective dose (LD50 /ED50) which was referred to as the antiarrhythmic index. […] The comparative study of the antiarrhythmic activity of pharmaceutical preparations using an acotine model of arrhythmia was effected in experiments on white rats weighing 190-240 g. The test preparations were administered intraperitoneally 10-40 minutes before administration of aconitine.

[6] = Aconitine model of arrhythmia in white rats; assay type: in vivo; conditions: for ED50: Rattus norvegicus, ip, read-out: ED50, aconitine arrhythmia in rats; for Antiarrhythmic index LD50/ED50, aconitine arrhythmia in rats: rat, in vivo
Experimental: as §1

[7] = in the organism; cited from earlier work
[8] = 10 mg/kg intraperitoneal, 60 minutes
[9] = 10 mg/kg intraperitoneal, 120 minutes
[10] = 30 mg/kg intraperitoneal, 60 minutes
[11] = 30 mg/kg intraperitoneal, 120 minutes
[12] = 3 mg/kg intraperitoneal, 45 minutes
[13] = 3 mg/kg intraperitoneal, 60 minutes
[14] = 3 mg/kg intraperitoneal, 120 minutes
[15] = 10 mg/kg intraperitoneal, 180 minutes

## CCOC(=O)COc1ccc2c(C)c(CCN(CC)CC)c(=O)oc2c1 [Carbocromene, reference compound]
[1]; 0.5 mg/kg
  Increase duration: 35 min
  Volume rate, percent of increase: 30%
[1]; 2 mg/kg
  Change of heart output: +5 - 15%
  Increase duration: 50 min
  Volume rate, percent of increase: 45%
[1]; 5 mg/kg
  Change of arterial pressure: 0 - +7%
  Change of central venous pressure: 5 - 10%
  Change of heart output: +5 - 15%
  Increase duration: 70 min
  Volume rate, percent of increase: 55%
[1]; in vivo
  Saturation of the venous blood of coronary sinus with oxygen: lastingly increase saturation of the venous blood of coronary sinus with oxygen

## CCN(CC)CC(=O)Nc1c(C)cccc1C [Lidocain]
[2]; iv
  ED50: 3.8 ± 0.5 mg/kg
[2]; intravenous
  Duration for which Strophanthin-induced arrhythmia is cut short / ECG improved: 0.5 to 3 min
  Number of animals (experiments) with effect on arrhythmia: 4 out of 7

## CCN(CC)CCNC(=O)c1ccc(N)cc1 [Novocainamide]
[3]; [8]
  Arrhythmogenic dose of CaCl2: 114.16 mg/kg
  Lethal dose of CaCl2: 120.8 mg/kg
[3]; [9]
  Arrhythmogenic dose of CaCl2: 86.85 mg/kg
  Lethal dose of CaCl2: 104.5 mg/kg
[3]; [10]
  Arrhythmogenic dose of CaCl2: 125.16 mg/kg
  Lethal dose of CaCl2: 143 mg/kg
[3]; [11]
  Arrhythmogenic dose of CaCl2: 93.16 mg/kg
  Lethal dose of CaCl2: 114.9 mg/kg
[3]
  Effect on arrhythmogenic and lethal doses of calcium chloride: more pronounced increase of the arrhythmogenic dose of calcium chloride
[4]
  LD50: 112 mg/kg
[5]; iv
  ED50: 46 ± 6.3 mg/kg
[5]; intravenous
  Antiarrhythmic index LD50/ED50, electric irritation of cat's heart: 2
[5]; intravenous, listed as novocainamide
  Antiarrhythmic index LD50/ED50, electric irritation of cat's heart: 2.3
[5]
  Effect on fibrillation threshold relative to the composition of the invention: the same effect
[6]
  ED50: 45 ± 5 mg/kg
  Antiarrhythmic index LD50/ED50, aconitine arrhythmia in rats: 2.5
[2]; intravenous
  ED50: 55 ± 7.3 mg/kg
  Duration for which Strophanthin-induced arrhythmia is cut short / ECG improved: 5 to 20 min

## C=C[C@H]1C[N@@]2CC[C@H]1C[C@@H]2[C@@H](O)c1ccnc2ccc(OC)cc12 [Quinidine]
[3]; [12]
  Arrhythmogenic dose of CaCl2: 128.9 mg/kg
  Lethal dose of CaCl2: 147.7 mg/kg
[3]; [13]
  Arrhythmogenic dose of CaCl2: 104.5 mg/kg
  Lethal dose of CaCl2: 117.8 mg/kg
[3]; [14]
  Arrhythmogenic dose of CaCl2: 87.47 mg/kg
  Lethal dose of CaCl2: 103.65 mg/kg
[3]; 10 mg/kg intraperitoneal, 45 minutes before CaCl2, control 85
  Arrhythmogenic dose of CaCl2: 120.84 mg/kg
[3]; 10 mg/kg intraperitoneal, 45 minutes before CaCl2, control 100.9
  Lethal dose of CaCl2: 138.54 mg/kg
[3]; [8]
  Arrhythmogenic dose of CaCl2: 119.48 mg/kg
  Lethal dose of CaCl2: 126.2 mg/kg
[3]; [9]
  Arrhythmogenic dose of CaCl2: 94.5 mg/kg
  Lethal dose of CaCl2: 117.6 mg/kg
[3]; [15]
  Arrhythmogenic dose of CaCl2: 88.7 mg/kg
  Lethal dose of CaCl2: 115.8 mg/kg
[3]
  Effect on arrhythmogenic and lethal doses of calcium chloride: more pronounced increase of the arrhythmogenic dose of calcium chloride
[4]
  Toxicity relative to the composition of the invention: substantially higher toxicity
  LD50: 68 mg/kg
[5]; intravenous
  ED50: 2.6 ± 0.5 mg/kg
  Antiarrhythmic index LD50/ED50, electric irritation of cat's heart: 26
[5]
  Effect on fibrillation threshold relative to the composition of the invention: exerting their effect at lower doses
[6]
  ED50: 4.3 ± 0.6 mg/kg
  Antiarrhythmic index LD50/ED50, aconitine arrhythmia in rats: 16
[2]; intravenous
  ED50: 2.3 ± 0.4 mg/kg
  Duration for which Strophanthin-induced arrhythmia is cut short / ECG improved: 0.5 to 3 min
  Number of animals (experiments) with effect on arrhythmia: 4 out of 8
[2]; guinea pig, in vivo
  Antiarrhythmic index LD50/ED50, Strophanthin arrhythmia in guinea pigs: 30

## C[N+](C)(C)CCCC(=O)[O-] [γ-butyrobetain]
[7]
  Metabolism into carnitine: rapidly metabolized
